Results taken from patent publication US7422868B2, “Microbial ATP extraction and detection system” (Promega Corporation, priority 2004, dated 2008).

Experiments:
P. aeruginosa = conditions: CDTA added at t=12 minutes, final 20 mM, to mixture with 20 mM MgCl2
Protocol: Either 100 μl of bacterial culture or 100 μl of a 1×10^−9 M ATP stock (control) was added to 100 μl of the reconstitution reagent and luminescence was measured periodically over a 35 minute time period. The microbial cultures were tested at approximately 10^6 cells per well. Additional CDTA was added at t=12 minutes to each of the samples (final concentration=20 mM CDTA).

[1] = tested on: Pseudomonas aeruginosa (ATCC27853); test: Effect of alternate divalent cations on ATP extraction and detection; assay type: cell-based; conditions: high (20 mM) divalent cation concentration; approximately 1×10^6 cells per well
Protocol: To evaluate the effects of alternate divalent cations on ATP extraction and detection at low (0.2 mM) and high (20 mM) divalent cation concentrations, Pseudomonas aeruginosa (ATCC27853) was grown in Mueller Hinton II (MH II) Broth at 37° C. overnight. The overnight culture was diluted 50-fold in fresh MH II Broth and then incubated for several hours to reach log phase. Cells were diluted to approximately 1×10^6 cells per well.

S. aureus ATCC 25923 = test: Bioluminescent detection of bacterial growth as a function of antibiotic dose; assay type: cell-based; conditions: 19 hours of incubation at 37° C.; ATP detection assay
Protocol: Four bacterial strains were used to evaluate the relationship between microbial cell number and luminescence. Bacterial strains Escherichia coli (ATCC25922), Staphylococcus aureus (ATCC25923), Pseudomonas aeruginosa (ATCC27853) and Bacillus cereus (ATCC10987) were grown in Mueller Hinton II (MH II) Broth at 37° C. overnight. The overnight culture was diluted 50-fold in fresh MH II Broth and then incubated for several hours to reach log phase. Samples of the culture were serially diluted using MH II Broth in a 96-well plate. […] Luminescence was recorded on a Veritas™ Microplate Luminometer from Turner Biosystems (Sunnyvale, Calif.). S. aureus ATCC 25923 strain was grown in MH II Broth at 37° C. overnight. The overnight culture was diluted 100-fold in fresh MH II Broth and used as inoculum for the antimicrobial screen. Working stocks (50×) of LOPAC compounds and standard antibiotics were prepared in DMSO. Each well of the 96-well multiwell plate contained 245 μl of the inoculum and 5 μl of the 50× working stock. […] One hundred microliters of the culture was taken from each well, and the luciferase detection assay was performed as described in Example 9. Luminescence was measured using a Veritas™ Microplate Luminometer from Turner Biosystems (Sunnyvale, Calif.). […] Luminescence was recorded on a Veritas™ Microplate Luminometer from Turner Biosystems (Sunnyvale, Calif.).

Compound | effect on ATP detection (luminescence) [1] | also measured
O=C(O)CN(CC(=O)O)C1CCCCC1N(CC(=O)O)CC(=O)O (stereo not shown) [CDTA, 1,2-Cyclohexanedinitrilotetraacetic acid] | – | neutralization of inhibitory divalent cation effects on ATP detection (luminescence) (P. aeruginosa): capable of neutralizing the inhibitory effects of divalent cations
[Ca+2].[Cl-].[Cl-] [Ca^2+, CaCl2] | impede ATP detection | –
[Cl][Mn][Cl] [Mn^2+, MnCl2] | impede ATP detection | –
Cc1onc(-c2ccccc2)c1C(=O)N[C@@H]1C(=O)N2[C@@H]1SC(C)(C)[C@@H]2C(=O)O [oxacillin] | – | relative percentage of RLU compared to the no-oxacillin control (S. aureus ATCC 25923): dose-dependent effect
